What was measured:
[1] = target: E. coli β-glucuronidase (Escherichia coli, UniProt P05804); assay type: biochemical; design: The full-length E. coli β-glucuronidase gene was obtained from bacterial genomic DNA; 6xHis (N); made in house; host or cells: E. coli BL21-DE3; settings: in vitro, using PNPG
Excerpt: (§1) Thus, two other β-glucuronidase activity assays were employed to examine the potency of inhibitors both in vitro and in cell-based studies. An absorbance assay based on the conversion of p-nitrophenyl glucuronide (PNPG) to p-nitrophenol (PNP) (Szasz (1967) Clin Chem 13:752-759), which absorbs at 410 nm, was employed as the primary in vitro assay (FIG. 9). A secondary assay involving the conversion of phenolphthalein glucuronide (PheG) to phenolphthalein (Phe), which absorbs at 540 nm, was also employed (FIG. 9). Id.
In vitro assays were conducted at 50 μL total volume in 96-well, clear bottom assay plates (Costar). Substrates consisted of PNPG or PheG (FIG. 9) and were acquired from Sigma. The presence of the hydrolysis product of each, PNP or Phe, was measured by absorbance at 410 nm or 540 nm, respectively. […] Absorbance was measured using a PHERAstar Plus microplate reader (BMG Labtech).
In vitro assays were conducted at 50 μL total volume in 96-well, clear bottom assay plates (Costar). […] The presence of the hydrolysis product of each, p-nitrophenol (PNP) and phenolphthalein (Phe), was measured by absorbance at 410 nm or 540 nm, respectively. […] Absorbance was measured using a PHERAstar Plus microplate reader (BMG Labtech). Data acquired was analyzed using Microsoft Excel and Sigmaplot 11.0.

[2] = target: β-glucuronidase activity in living E. coli cells (Escherichia coli, UniProt P05804); assay type: cell-based; design: The full-length E. coli β-glucuronidase gene was obtained from bacterial genomic DNA; expressed in transfected cells; host or cells: E. coli HB101 transformed with pET-28a-GUS
Chain of β-glucuronidase activity in living E. coli cells (P05804 whole entry): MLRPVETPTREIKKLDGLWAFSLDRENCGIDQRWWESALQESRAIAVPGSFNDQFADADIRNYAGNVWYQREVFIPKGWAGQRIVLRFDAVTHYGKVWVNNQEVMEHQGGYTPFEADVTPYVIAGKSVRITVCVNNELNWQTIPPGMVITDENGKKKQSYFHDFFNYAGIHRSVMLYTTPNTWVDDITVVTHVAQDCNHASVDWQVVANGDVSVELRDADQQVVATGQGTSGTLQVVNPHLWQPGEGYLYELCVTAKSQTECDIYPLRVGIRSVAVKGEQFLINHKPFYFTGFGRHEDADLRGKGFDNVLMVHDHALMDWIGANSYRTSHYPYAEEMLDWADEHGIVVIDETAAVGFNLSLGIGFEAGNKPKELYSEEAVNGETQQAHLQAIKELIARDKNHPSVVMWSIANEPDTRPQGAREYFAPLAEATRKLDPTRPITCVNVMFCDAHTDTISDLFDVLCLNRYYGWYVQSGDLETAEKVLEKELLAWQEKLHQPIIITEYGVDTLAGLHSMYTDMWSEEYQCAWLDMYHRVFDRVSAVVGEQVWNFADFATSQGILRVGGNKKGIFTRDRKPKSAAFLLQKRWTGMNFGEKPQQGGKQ
Excerpt: as §1
HB101 E. coli cells were grown to an OD600 of 0.6 in LB medium. These cells were then used for an in vivo assay. Reaction time and temperature were the same as previously described (see In Vitro β-Glucuronidase Assays). […] Absorbance was measured at the appropriate wavelength, depending on the substrate. […]
HB101 E. coli cells, transformed with the pET-28a vector containing the β-Glucuronidase gene, were grown to an OD600 of 0.6 in LB medium. […] Absorbance was measured at the appropriate wavelength, either 410 nm or 540 nm. Cell survivability in the presence of the nine inhibitors was assessed by plating a 10^−5 dilution of 200 μl of saturated cells after incubation with 100 μM of each inhibitor for 6 hours. […] Plated cells were allowed to incubate at 37° C. overnight, and colonies were counted to quantify the viability of the cells.

[3] = tested on: diarrhea; settings: rats, literature (Fittkau et al. 2004); cited from earlier work

Chain of E. coli β-glucuronidase (P05804 whole entry): as above

| SMILES | IC50 [1] [µM] | efficacy in living cells [2] | reversal of CPT-11 diarrhea / epithelial cell death [3] |
| --- | --- | --- | --- |
| O=C(O)[C@H]1NC(=O)[C@H](O)[C@@H](O)[C@@H]1O [GDL, glucaro-δ-lactam, reference compound] | 45 ± 3.1 | ineffective |  |
| O=C1OC(C(O)C(=O)O)C(O)C1O (stereo not drawn) [saccharic acid 1,4-lactone] |  |  | partially reversed |

From US9334288B2, “Selective β-glucuronidase inhibitors as a treatment for side effects of camptothecin antineoplastic agents” (The University of North Carolina at Chapel Hill, priority 2009, dated 2016)
